Measured values taken from PubChem BioAssay AID608 (Sanford-Burnham Center for Chemical Genomics, 2007).
The source made the active and inactive calls. No rule for the calls is given here.

What follows are compounds tested against Peptidyl-prolyl cis-trans isomerase FKBP1A (Homo sapiens) (UniProt P62942) (assay: FKBP12 binders, biophysical, NMR detection (AID 608)). Conditions: NMR binding, purified FKBP12.
Peptidyl-prolyl cis-trans isomerase FKBP1A (Homo sapiens), sequence (P62942 whole entry, looked up): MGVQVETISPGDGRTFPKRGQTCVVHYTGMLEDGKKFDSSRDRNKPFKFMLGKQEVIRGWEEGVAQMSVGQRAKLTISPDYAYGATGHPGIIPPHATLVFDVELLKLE

Row | Structure (SMILES) | Kd
1 | CCn1cnc2cc([N+](=O)[O-])ccc2c1=O | > 4 mM (inactive)
2 | COc1ccc2ccc(=O)oc2c1 | > 4 mM (inactive)
3 | COc1cc2nc(-c3cccs3)oc(=O)c2cc1OC | > 4 mM (inactive)
4 | Clc1ccccc1OCCn1ccnc1 | > 4 mM (inactive)
5 | COc1ccc2[nH]cc(CCNC(C)=O)c2c1 | > 4 mM (inactive)
6 | CSc1nc(NC(C)C)nc(N2CCOCC2)n1 | > 4 mM (inactive)
7 | c1ccc(-c2nnc(CNCc3ccco3)o2)cc1 | > 4 mM (inactive)
8 | Nc1cccc(S(=O)(=O)N2CCCCC2)c1 | > 4 mM (inactive)
9 | CCSc1nc(C)c(CC)c(C)c1C(N)=O | > 4 mM (inactive)
10 | O=C1CN2C(=N1)N(Cc1ccccc1)c1ccccc12 | > 4 mM (inactive)
11 | CC(=O)N/N=C(\C)c1cccc(N)c1 | > 4 mM (inactive)
12 | NC(=O)C1CCN(C(=O)c2ccccc2)CC1 | > 4 mM (inactive)
13 | O=C(Nc1ccon1)c1cccc(C(F)(F)F)c1 | > 4 mM (inactive)
14 | Cc1ccc(N)nc1 | > 4 mM (inactive)
15 | Cn1c(=O)[nH]c(=O)c2c1ncn2CCN1CCCCC1 | > 4 mM (inactive)
16 | Cc1ncc(C[n+]2csc3ccccc32)c(N)n1 | > 4 mM (inactive)
17 | Cc1cccc(CSc2nncc(=O)[nH]2)c1 | > 4 mM (inactive)
18 | COc1cc2c(cc1OC)C(=O)OC2 | > 4 mM (inactive)
19 | COc1ccc2c(c1OC)C(=O)OC2[C@H]1c2c(cc3c(c2OC)OCO3)CCN1C (some centres not stated) | > 4 mM (inactive)
20 | Cc1cc(C(=O)NCc2ccccc2Br)no1 | > 4 mM (inactive)
21 | COC(=O)c1noc(-c2ccc(OC)cc2)n1 | > 4 mM (inactive)
22 | O=C(O)c1cccc2c1OCC2 | > 4 mM (inactive)
23 | O=C(O)CCCCC1SCC2NC(=O)NC21 (configuration not stated) | > 4 mM (inactive)
24 | CN1CCC(N(C)Cc2cccnc2)CC1 | > 4 mM (inactive)
25 | CCC(=O)Nc1cccc(NC(C)=O)c1 | > 4 mM (inactive)

Row | Structure (SMILES) | Kd
26 | CCOC(=O)C1CCN(Cc2ccccc2)CC1=O (configuration not stated) | > 4 mM (inactive)
27 | CC(=O)Nc1nnc(-c2ccccn2)o1 | > 4 mM (inactive)
28 | C[N+](C)(C)CC(O)CC(=O)O (configuration not stated) | > 4 mM (inactive)
29 | CS(=O)(=O)NN=C1CCCCC1 | > 4 mM (inactive)
30 | N#CCCn1c(=O)oc2ccccc21 | > 4 mM (inactive)
31 | Cn1nnc2cc(C(=O)N3CCSCC3)ccc21 | > 4 mM (inactive)
32 | CN(C)C(=O)C12CCC(C)(C(=O)O1)C2(C)C (configuration not stated) | > 4 mM (inactive)
33 | NC(Cc1c[nH]c2ccccc12)C(=O)O (configuration not stated) | > 4 mM (inactive)
34 | Cc1ccc(-n2[nH]c(C)cc2=O)cc1 | > 4 mM (inactive)
35 | CC(=O)c1cc(C)ccc1OC(=O)c1cccnc1 | > 4 mM (inactive)
36 | CC(C)=CC1C(C(=O)O)C1(C)C (configuration not stated) | > 4 mM (inactive)
37 | Clc1ccc(-c2nnc3ccccn23)cc1 | > 4 mM (inactive)
38 | Cc1ccc(Cl)cc1NS(=O)(=O)N1CCOCC1 | > 4 mM (inactive)
39 | CSc1ncc(C(=O)O)n1Cc1ccccc1 | > 4 mM (inactive)
40 | Cn1ccc(C(=O)NC(=S)NN2CCOCC2)n1 | > 4 mM (inactive)
41 | CC(C)=CCc1c(O)cc2occ(-c3ccc4c(c3)OCO4)c(=O)c2c1O | > 4 mM (inactive)
42 | OCC12COC3c4ccccc4C(OC1)N32 (configuration not stated) | > 4 mM (inactive)
43 | O=C(O)c1ccccc1C(=O)NCC1CCCO1 (configuration not stated) | > 4 mM (inactive)
44 | Cc1ccc(/C=C2/C(=O)N=C(N)N2C)s1 | > 4 mM (inactive)
45 | NC(CCC(=O)Nc1ccc([N+](=O)[O-])cc1)C(=O)O (configuration not stated) | > 4 mM (inactive)
46 | CCc1ccccc1OCC(=O)N1CCOCC1 | > 4 mM (inactive)
47 | Nc1nnc(Cc2ccc(Cl)cc2)s1 | > 4 mM (inactive)
48 | CNC(=O)C(=O)Nc1ccc(F)cc1 | > 4 mM (inactive)
49 | COC(=O)c1ccccc1C | > 4 mM (inactive)
50 | C=C(C)C1Cc2c(ccc(C(=O)O)c2O)O1 (configuration not stated) | > 4 mM (inactive)

Row | Structure (SMILES) | Kd
51 | Cc1cccc(C)c1N1C(=O)CCC1=O | > 4 mM (inactive)
52 | CCOC(=O)c1ccc(Oc2ccc(C)nn2)cc1 | > 4 mM (inactive)
53 | N#Cc1c(N)c(C(=O)c2ccccc2)n2c1CCC2 | > 4 mM (inactive)
54 | O=C(NN1C(=O)c2ccccc2C1=O)c1cccs1 | > 4 mM (inactive)
55 | O=C(Nc1ccon1)c1ccc(Cl)s1 | > 4 mM (inactive)
56 | CCn1c2ccccc2c2nn(C)c(=N)nc21 | > 4 mM (inactive)
57 | O=C1CC[C@]23/C=C/C(=O)NCCCCNCCCNC(=O)/C=C/c4ccc(c2c4)O[C@@H]3C1 | > 4 mM (inactive)
58 | COC(=O)[C@]1(C)CC[C@]2(C)CC[C@]3(C)C4=CCc5c(cc(O)c(O)c5C)[C@]4(C)CC[C@@]3(C)C2C1 (some centres not stated) | > 4 mM (inactive)
59 | Cc1ccc(C)n1NC(=O)c1cccs1 | > 4 mM (inactive)
60 | CN(C)N1C(=O)c2ccccc2C1=O | > 4 mM (inactive)
61 | N[C@@H](Cc1cc(I)c(Oc2cc(I)c(O)c(I)c2)c(I)c1)C(=O)O | > 4 mM (inactive)
62 | Nc1ncnc(NCCO)c1[N+](=O)[O-] | > 4 mM (inactive)
63 | COc1cccc(S(=O)(=O)Nc2cccnc2)c1 | > 4 mM (inactive)
64 | O=c1c[n+]([O-])c2ccccc2n1OCc1ccccc1 | > 4 mM (inactive)
65 | Cc1nc2ccccc2c2c1C(=O)N(C)C2=O | > 4 mM (inactive)
66 | c1ccc(NCc2nc(-c3ccccc3)no2)cc1 | > 4 mM (inactive)
67 | CSc1nc2cc(F)c(F)cc2n1C | > 4 mM (inactive)
68 | CC(=O)Nc1ccc(C)cc1NC(C)=O | > 4 mM (inactive)
69 | O=C(O)C1CCN(S(=O)(=O)c2cccs2)CC1 | > 4 mM (inactive)
70 | NC(Cn1ccc(=O)c(O)c1)C(=O)O (configuration not stated) | > 4 mM (inactive)
71 | NCC1CN(Cc2ccccc2)CCO1 (configuration not stated) | > 4 mM (inactive)
72 | O=C1CNC(=O)N1Cc1ccc(F)cc1 | > 4 mM (inactive)
73 | CNC[C@@H](O)c1ccc(O)c(O)c1 | > 4 mM (inactive)
74 | CC(CC(O)C1OC1(C)C)[C@@H]1CCC2(C)C3=CCC4C(C)(C)C(=O)CCC4(C)C3CC[C@@]12C (some centres not stated) | > 4 mM (inactive)
75 | NC(=O)C1CCN(CC2CC=CCC2)CC1 (configuration not stated) | > 4 mM (inactive)

Row | Structure (SMILES) | Kd
76 | Cn1cccc1C(=S)N1CCOCC1 | > 4 mM (inactive)
77 | Cc1ccccc1NC(=O)CC1NCCNC1=O (configuration not stated) | > 4 mM (inactive)
78 | O=C(Nc1ccccn1)C(=O)N1CCCC1 | > 4 mM (inactive)
79 | CN1CN/C(=N\[N+](=O)[O-])N(c2ccccc2)C1 | > 4 mM (inactive)
80 | OCCNc1ccccn1 | > 4 mM (inactive)
81 | COc1cc2c(cc1OC)[C@@H]1C(=O)c3ccc(OC)c(CC=C(C)C)c3O[C@@H]1CO2 | > 4 mM (inactive)
82 | O=C(Nc1nncs1)c1c(F)cccc1F | > 4 mM (inactive)
83 | O=C(NCc1ccccn1)c1ccc(Cl)cc1Cl | > 4 mM (inactive)
84 | CC(=O)O[C@@H]1C[C@@]2(C)[C@H](c3ccoc3)C[C@H]3O[C@]32[C@]2(C)C(=O)C(O)=C3C(C)(C)C(=O)C=C[C@]3(C)C12 (some centres not stated) | > 4 mM (inactive)
85 | Cc1cc(NC(=O)CSc2ccnc(=O)[nH]2)no1 | > 4 mM (inactive)
86 | Cc1cc(=O)n2ncn(Cc3ccccc3)c2n1 | > 4 mM (inactive)
87 | NCc1cccc2c1OCCCO2 | > 4 mM (inactive)
88 | CCOC(=O)C1=C(C)N2CCN=C2S1 | > 4 mM (inactive)
89 | CC(=O)Oc1ccc(-c2nc(-c3cccnc3)no2)cc1 | > 4 mM (inactive)
90 | Cn1nc(C(=O)N2CCCC2)c2ccccc2c1=O | > 4 mM (inactive)
91 | OCc1ccc(N2CCOCC2)cc1 | > 4 mM (inactive)
92 | CC(C)=CCc1c2c(c3occ(-c4ccc(O)cc4)c(=O)c3c1O)C=CC(C)(C)O2 | > 4 mM (inactive)
93 | CN1CCC=C(C(=O)O)C1 | > 4 mM (inactive)
94 | CC(=O)NCCc1cc2ccc(C)c(C)c2[nH]c1=O | > 4 mM (inactive)
95 | N/C(=N/O)C1COc2ccccc2O1 (configuration not stated) | > 4 mM (inactive)
96 | Cc1cc(C(=O)Nc2ccc3c(c2)OCCO3)c(C)o1 | > 4 mM (inactive)
97 | CC(=O)OC1CCC2(C)C(=CC=C3C2CCC2(C)C3CCC2C(C)/C=C/C(C)C(C)C)C1(C)C (configuration not stated) | > 4 mM (inactive)
98 | CSc1nnc(-c2ccccc2NC(C)=O)o1 | > 4 mM (inactive)
99 | COc1ccc(C2(C)NC(=O)NC2=O)cc1 (configuration not stated) | > 4 mM (inactive)
100 | COc1cc2c(cc1O)[C@@H](Cc1ccc(O)cc1)[N+](C)(C)CC2 | > 4 mM (inactive)

Row | Structure (SMILES) | Kd
101 | CN1CCN(CC(=O)Nc2ccccc2)CC1 | > 4 mM (inactive)
102 | Cc1nn(-c2ccccc2)nc1C(N)=O | > 4 mM (inactive)
103 | COc1cc(OC)c2c(=O)c(O)c(-c3ccc(OC)c(OC)c3)oc2c1 | > 4 mM (inactive)
104 | O=C(CC1NC(=O)NC1=O)Nc1ccccc1 (configuration not stated) | > 4 mM (inactive)
105 | CCOC(=O)c1cc(C)n(C)n1 | > 4 mM (inactive)
106 | Cc1cc([N+](=O)[O-])cc[n+]1[O-] | > 4 mM (inactive)
107 | N#Cc1sc2nc3c(c(-c4cccnc4)c2c1N)CCC3 | > 4 mM (inactive)
108 | CC(C)c1c(O)ccc2c1CCC1[C@@](C)(C=O)CCC[C@]21C (some centres not stated) | > 4 mM (inactive)
109 | COc1ccc2c(c1)=C(c1sc(N)nc1O)C(=O)N=2 | > 4 mM (inactive)
110 | Cc1ccn(S(=O)(=O)c2ccc(C(C)(C)C)cc2)n1 | > 4 mM (inactive)
111 | NC(=O)c1ccccc1N=Cc1ccco1 | > 4 mM (inactive)
112 | O=C(O)c1cncc(-c2ccccc2)c1 | > 4 mM (inactive)
113 | Cc1cc(CN2C(=O)c3ccccc3C2=O)on1 | > 4 mM (inactive)
114 | COC(=O)c1c(C)cc(OC(=O)c2c(C)cc(O)c(C=O)c2O)c(C)c1O | > 4 mM (inactive)
115 | O=C(NN1C(=O)C2C3C=CC(C3)C2C1=O)C1CC=CCC1 (configuration not stated) | > 4 mM (inactive)
116 | NC(C(=O)O)C(O)C(=O)O (configuration not stated) | > 4 mM (inactive)
117 | NCC(N)C(=O)c1ccccc1 (configuration not stated) | > 4 mM (inactive)
118 | Oc1ccc2c(c1)OCO2 | > 4 mM (inactive)
119 | C=C(C)[C@H]1Cc2c(ccc3c2O[C@@H]2COc4cc(OC)c(OC)cc4[C@@H]2C3=O)O1 | > 4 mM (inactive)
120 | OCc1ccc(-n2cccn2)cc1 | > 4 mM (inactive)
121 | Nc1cccc(NC(=O)c2ccco2)c1 | > 4 mM (inactive)
122 | CC(=O)Nc1cc(C(N)=O)cc(C(N)=O)c1 | > 4 mM (inactive)
